Results reported in ChEMBL document CHEMBL1201862, “PubChem BioAssay data set” (2004).
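Growth conditions: 96-well plates. Treatment: test compound, 48 hours, 5 concentrations. Analysis: linear interpolation between bracketing concentrations; unreached endpoints set to highest concentration. Here, GI50 denotes the concentration required for 50% inhibition of growth.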 The source made the active and inactive calls. Rule as the data show it: active = GI50 up to about 1.1 µM and inactive = higher.

Legend:
Assay in all cases: NCI-60 cell line screen, 48 h
SK-MEL-5 = system: SK-MEL-5
MDA-N = system: MDA-N
SK-MEL-2 = system: SK-MEL-2
ACHN = system: ACHN
NCI-H23 = system: NCI-H23
EKVX = system: EKVX
OVCAR-4 = system: OVCAR-4
UACC-257 = system: UACC-257
HCT-116 = system: HCT-116
OVCAR-5 = system: OVCAR-5
DU-145 = system: DU-145
MDA-MB-231 = system: MDA-MB-231
HCC 2998 = system: HCC 2998
IGROV-1 = system: IGROV-1
NCI-H460 = system: NCI-H460
HOP-62 = system: HOP-62
UO-31 = system: UO-31
SK-OV-3 = system: SK-OV-3
SN12C = system: SN12C
TK-10 = system: TK-10

Row | SMILES | GI50 (SK-MEL-5) | GI50 (MDA-N) | GI50 (SK-MEL-2) | GI50 (ACHN) | GI50 (NCI-H23) | GI50 (EKVX) | GI50 (OVCAR-4) | GI50 (UACC-257) | GI50 (HCT-116) | GI50 (OVCAR-5) | GI50 (DU-145) | GI50 (MDA-MB-231) | GI50 (HCC 2998) | GI50 (IGROV-1) | GI50 (NCI-H460) | GI50 (HOP-62) | GI50 (UO-31) | GI50 (SK-OV-3) | GI50 (SN12C) | GI50 (TK-10)
1 | C[C@@H]1S[C@H](c2ccccc2F)N2Cc3ccccc3N=C12 | 17 µM (inactive) | 20.7 µM (inactive) | 16.8 µM (inactive) | 31.4 µM (inactive) | 31.3 µM (inactive) | 24.8 µM (inactive) | 21 µM (inactive) | 28.6 µM (inactive) | 17.1 µM (inactive) | 28.2 µM (inactive) | 33.7 µM (inactive) | 35 µM (inactive) | 20 µM (inactive) | 33.5 µM (inactive) | 30.9 µM (inactive) | 29.8 µM (inactive) | 17.1 µM (inactive) | 25.1 µM (inactive) | 18.7 µM (inactive) | 36.7 µM (inactive)
2 | O=C1C(Br)=CC2(C=C1Br)CCNC1=C2C2=NCCc3c[nH]c(c32)C1=O | 0.126 µM (active) | 0.102 µM (active) | 0.183 µM (active) | 0.0962 µM (active) | 0.119 µM (active) | 0.231 µM (active) | 0.0794 µM (active) | 0.101 µM (active) | 0.0233 µM (active) | 0.69 µM (active) | 0.811 µM (active) | 0.149 µM (active) | 0.506 µM (active) | 0.153 µM (active) | 0.548 µM (active) | 2.32 µM (inactive) | 0.308 µM (active) | 1.9 µM (inactive) | 0.146 µM (active) | 0.204 µM (active)
3 | O=C(c1ccc(F)cc1)c1cccc(C(=O)c2ccc(F)cc2)n1 | 51.8 µM (inactive) | > 100 µM (inactive) | 27.7 µM (inactive) | 46.2 µM (inactive) | 20.2 µM (inactive) | > 100 µM (inactive) | 71.6 µM (inactive) | 47.4 µM (inactive) | 22.9 µM (inactive) | > 95.3 µM (inactive) | > 100 µM (inactive) | 38.6 µM (inactive) | > 100 µM (inactive) | 24.9 µM (inactive) | > 100 µM (inactive) | 20.1 µM (inactive) | 45.3 µM (inactive) | 1.53 µM (inactive) | 55.2 µM (inactive) | 39.7 µM (inactive)
4 | CCn1c(SCC(=O)N/N=C2\SCC(=O)N2c2ccc(C)cc2)nc2ccccc2c1=O | 22.9 µM (inactive) | 23.6 µM (inactive) | 28.9 µM (inactive) | 18.6 µM (inactive) | 19.1 µM (inactive) | 22.4 µM (inactive) | 18.2 µM (inactive) | 15.7 µM (inactive) | 20 µM (inactive) | 20.5 µM (inactive) | 28.2 µM (inactive) | 20.2 µM (inactive) | 36.8 µM (inactive) | 21.6 µM (inactive) | 24.7 µM (inactive) | 21.7 µM (inactive) | 15.1 µM (inactive) | 19.7 µM (inactive) | 27 µM (inactive) | 15 µM (inactive)
5 | CC1=COC2=C(C)C(=O)C(=O)c3c(C)ccc1c32 [MANSONONE F] | 0.859 µM (active) | 1.78 µM (inactive) | 5.56 µM (inactive) | 8.3 µM (inactive) | 2.84 µM (inactive) | 6.92 µM (inactive) | 2.77 µM (inactive) | 7.23 µM (inactive) | 2.61 µM (inactive) | 18.2 µM (inactive) | 6.21 µM (inactive) | 3.28 µM (inactive) | 6.27 µM (inactive) | 3.74 µM (inactive) | 2.18 µM (inactive) | 4.52 µM (inactive) | 14.7 µM (inactive) | 15.8 µM (inactive) | 3.71 µM (inactive) | 42.1 µM (inactive)
6 | CC(=N/NC(=S)N1CCCCCC1)/C(C)=N\NC(=S)N1CCCCCC1 | 4.86 µM (inactive) | 6.55 µM (inactive) | 1.97 µM (inactive) | 3.38 µM (inactive) | 4.83 µM (inactive) | 3.85 µM (inactive) | 1.79 µM (inactive) | 5.2 µM (inactive) | 5.08 µM (inactive) | 7.89 µM (inactive) | 3.21 µM (inactive) | 7.98 µM (inactive) | 3.12 µM (inactive) | 3.84 µM (inactive) | 4.38 µM (inactive) | 4.98 µM (inactive) | 3.75 µM (inactive) | 3.88 µM (inactive) | 1.91 µM (inactive) | 4.34 µM (inactive)
7 | C/C1=C\CC[C@@]2(C)O[C@@H]2C[C@@H]2[C@H](C/C(C)=C/CC1)OC(=O)C21CCN=N1 (stereo not given in full) | 34.9 µM (inactive) | > 75 µM (inactive) | > 75 µM (inactive) | 35.3 µM (inactive) | > 75 µM (inactive) | > 75 µM (inactive) | 61.8 µM (inactive) | > 75 µM (inactive) | > 75 µM (inactive) | > 75 µM (inactive) | > 75 µM (inactive) | > 75 µM (inactive) | > 75 µM (inactive) | > 75 µM (inactive) | 39.6 µM (inactive) | 27.9 µM (inactive) | > 75 µM (inactive) | > 75 µM (inactive) | 37.8 µM (inactive) | > 75 µM (inactive)
8 | CCOC(=O)CCC(NC(=O)c1ccc(NCc2ccc3nc(OC)c(OC)nc3c2)c2ccccc12)C(=O)OCC (stereo not given) | 58.1 µM (inactive) | > 100 µM (inactive) | > 100 µM (inactive) | 55.8 µM (inactive) | > 100 µM (inactive) | > 100 µM (inactive) | 43.1 µM (inactive) | > 100 µM (inactive) | > 100 µM (inactive) | > 100 µM (inactive) | > 100 µM (inactive) | 71.1 µM (inactive) | > 100 µM (inactive) | 31.8 µM (inactive) | > 100 µM (inactive) | 25.9 µM (inactive) | > 100 µM (inactive) | 31 µM (inactive) | > 100 µM (inactive) | 66.2 µM (inactive)
9 | C=C1C(=O)O[C@H]2C/C(C)=C/CC[C@@]3(C)O[C@](C)(CC[C@@H]3I)[C@@H](I)C[C@@H]12 | 3.32 µM (inactive) | 2.49 µM (inactive) | 9.02 µM (inactive) | 7.03 µM (inactive) | 8.69 µM (inactive) | 7.16 µM (inactive) | 6.14 µM (inactive) | 5.9 µM (inactive) | 2.92 µM (inactive) | 10.2 µM (inactive) | 5.04 µM (inactive) | 6.75 µM (inactive) | 4.09 µM (inactive) | 1.78 µM (inactive) | 6.38 µM (inactive) | 8.59 µM (inactive) | 5.66 µM (inactive) | 7.24 µM (inactive) | 4.2 µM (inactive) | 6.03 µM (inactive)
